Calls of active or inactive are those of the source. The rule behind the calls is not given here.
Tested on: CCRIS mutagenicity, Ames/micronucleus/aberration tests
Test: CCRIS mutagenicity studies
[1] = Test System: AMES SALMONELLA TYPHIMURIUM, Strain/Indicator: TA98, Metabolic Activation: NONE, Method: STANDARD PLATE
[2] = Test System: AMES SALMONELLA TYPHIMURIUM, Strain/Indicator: TA98, Metabolic Activation: RAT, LIVER, S-9, AROCLOR 1254, Method: STANDARD PLATE
[3] = Test System: AMES SALMONELLA TYPHIMURIUM, Strain/Indicator: TA100, Metabolic Activation: NONE, Method: PREINCUBATION

[N-]=[N+]=[N-]
mutagenic call (Test System: AMES SALMONELLA TYPHIMURIUM, Strain/Indicator: TA97, Metabolic Activation: NONE, Method: STANDARD PLATE): inactive; negative | mutagenic call (Test System: AMES SALMONELLA TYPHIMURIUM, Strain/Indicator: TA97, Metabolic Activation: RAT, LIVER, S-9, AROCLOR 1254, Method: STANDARD PLATE): inactive; negative | mutagenic call (Test System: AMES SALMONELLA TYPHIMURIUM, Strain/Indicator: TA98, Metabolic Activation: HAMSTER, LIVER, S-9, AROCLOR 1254 (10%), Method: PREINCUBATION): inactive; negative | mutagenic call (Test System: AMES SALMONELLA TYPHIMURIUM, Strain/Indicator: TA98, Metabolic Activation: NONE, Method: PREINCUBATION): inactive; negative | mutagenic call (Test System: AMES SALMONELLA TYPHIMURIUM, Strain/Indicator: TA98, Metabolic Activation: NONE, Method: SPIRAL ASSAY): inactive; negative | mutagenic call [1]: inactive; negative | mutagenic call (Test System: AMES SALMONELLA TYPHIMURIUM, Strain/Indicator: TA98, Metabolic Activation: RAT, LIVER, S-9, ACRYLAMIDE, Method: STANDARD PLATE): active; positive | mutagenic call (Test System: AMES SALMONELLA TYPHIMURIUM, Strain/Indicator: TA98, Metabolic Activation: RAT, LIVER, S-9, AROCLOR 1254 (10%), Method: PREINCUBATION): inactive; negative | mutagenic call (Test System: AMES SALMONELLA TYPHIMURIUM, Strain/Indicator: TA98, Metabolic Activation: RAT, LIVER, S-9, AROCLOR 1254, Method: SPIRAL ASSAY): inactive; negative | mutagenic call [2]: inactive; negative | mutagenic call (Test System: AMES SALMONELLA TYPHIMURIUM, Strain/Indicator: TA100, Metabolic Activation: HAMSTER, LIVER, S-9, AROCLOR 1254 (10%), Method: PREINCUBATION): active; positive | mutagenic call [3]: active; positive | mutagenic call (Test System: AMES SALMONELLA TYPHIMURIUM, Strain/Indicator: TA100, Metabolic Activation: NONE, Method: SPIRAL ASSAY): active; positive | mutagenic call (Test System: AMES SALMONELLA TYPHIMURIUM, Strain/Indicator: TA100, Metabolic Activation: RAT, LIVER, S-9, ACRYLAMIDE, Method: STANDARD PLATE): active; positive | mutagenic call (Test System: AMES SALMONELLA TYPHIMURIUM, Strain/Indicator: TA100, Metabolic Activation: RAT, LIVER, S-9, AROCLOR 1254 (10%), Method: PREINCUBATION): active; positive | mutagenic call (Test System: AMES SALMONELLA TYPHIMURIUM, Strain/Indicator: TA100, Metabolic Activation: RAT, LIVER, S-9, AROCLOR 1254, Method: SPIRAL ASSAY): active; positive | mutagenic call (Test System: AMES SALMONELLA TYPHIMURIUM, Strain/Indicator: TA100, Metabolic Activation: RAT, LIVER, S-9, PCB, Method: PREINCUBATION): active; positive | mutagenic call (Test System: AMES SALMONELLA TYPHIMURIUM, Strain/Indicator: TA1530, Metabolic Activation: NONE, Method: STANDARD PLATE): active; positive | mutagenic call (Test System: AMES SALMONELLA TYPHIMURIUM, Strain/Indicator: TA1535, Metabolic Activation: HAMSTER, LIVER, S-9, AROCLOR 1254 (10%), Method: PREINCUBATION): active; positive | mutagenic call (Test System: AMES SALMONELLA TYPHIMURIUM, Strain/Indicator: TA1535, Metabolic Activation: NONE, Method: PREINCUBATION): active; positive | mutagenic call (Test System: AMES SALMONELLA TYPHIMURIUM, Strain/Indicator: TA1535, Metabolic Activation: NONE, Method: SPIRAL ASSAY): active; positive | mutagenic call (Test System: AMES SALMONELLA TYPHIMURIUM, Strain/Indicator: TA1535, Metabolic Activation: NONE, Method: STANDARD PLATE): active; positive | mutagenic call (Test System: AMES SALMONELLA TYPHIMURIUM, Strain/Indicator: TA1535, Metabolic Activation: RAT, LIVER, S-9, AROCLOR 1254 (10%), Method: PREINCUBATION): active; positive | mutagenic call (Test System: AMES SALMONELLA TYPHIMURIUM, Strain/Indicator: TA1535, Metabolic Activation: RAT, LIVER, S-9, AROCLOR 1254, Method: SPIRAL ASSAY): active; positive | mutagenic call (Test System: AMES SALMONELLA TYPHIMURIUM, Strain/Indicator: TA1535, Metabolic Activation: RAT, LIVER, S-9, AROCLOR 1254, Method: STANDARD PLATE): active; positive | mutagenic call (Test System: AMES SALMONELLA TYPHIMURIUM, Strain/Indicator: TA1537, Metabolic Activation: HAMSTER, LIVER, S-9, AROCLOR 1254 (10%), Method: PREINCUBATION): inactive; negative | mutagenic call (Test System: AMES SALMONELLA TYPHIMURIUM, Strain/Indicator: TA1537, Metabolic Activation: NONE, Method: PREINCUBATION): inactive; negative | mutagenic call (Test System: AMES SALMONELLA TYPHIMURIUM, Strain/Indicator: TA1537, Metabolic Activation: NONE, Method: STANDARD PLATE): inactive; negative | mutagenic call (Test System: AMES SALMONELLA TYPHIMURIUM, Strain/Indicator: TA1537, Metabolic Activation: RAT, LIVER, S-9, AROCLOR 1254 (10%), Method: PREINCUBATION): inactive; negative | mutagenic call (Test System: AMES SALMONELLA TYPHIMURIUM, Strain/Indicator: TA1537, Metabolic Activation: RAT, LIVER, S-9, AROCLOR 1254, Method: STANDARD PLATE): inactive; negative | mutagenic call (Test System: AMES SALMONELLA TYPHIMURIUM, Strain/Indicator: TA1538, Metabolic Activation: HAMSTER, LIVER, S-9, AROCLOR 1254 (10%), Method: PREINCUBATION): inactive; negative | mutagenic call (Test System: AMES SALMONELLA TYPHIMURIUM, Strain/Indicator: TA1538, Metabolic Activation: NONE, Method: PREINCUBATION): inactive; negative | mutagenic call (Test System: AMES SALMONELLA TYPHIMURIUM, Strain/Indicator: TA1538, Metabolic Activation: RAT, LIVER, S-9, AROCLOR 1254 (10%), Method: PREINCUBATION): inactive; negative | mutagenic call (Test System: Ames Salmonella typhimurium, Strain/Indicator: TA1975P, Metabolic Activation: None, Method: Preincubation): active; positive (at higher doses) | mutagenic call (Test System: E. COLI, Strain/Indicator: AB2500, Metabolic Activation: NONE, Method: STANDARD PLATE): inactive; negative | mutagenic call (Test System: E. COLI, Strain/Indicator: WP2 UVRA, Metabolic Activation: HAMSTER, LIVER, S-9, AROCLOR 1254, Method: STANDARD PLATE): inactive; negative | mutagenic call (Test System: E. COLI, Strain/Indicator: WP2 UVRA, Metabolic Activation: HAMSTER, LIVER, S-9, Method: STANDARD PLATE): inactive; negative | mutagenic call (Test System: E. COLI, Strain/Indicator: WP2 UVRA, Metabolic Activation: MOUSE, LIVER, S-9, AROCLOR 1254, Method: STANDARD PLATE): inactive; negative | mutagenic call (Test System: E. COLI, Strain/Indicator: WP2 UVRA, Metabolic Activation: MOUSE, LIVER, S-9, Method: STANDARD PLATE): inactive; negative | mutagenic call (Test System: E. COLI, Strain/Indicator: WP2 UVRA, Metabolic Activation: NONE, Method: STANDARD PLATE): inactive; negative | mutagenic call (Test System: E. COLI, Strain/Indicator: WP2 UVRA, Metabolic Activation: RAT, LIVER, S-9, AROCLOR 1254, Method: STANDARD PLATE): inactive; negative | mutagenic call (Test System: E. COLI, Strain/Indicator: WP2 UVRA, Metabolic Activation: RAT, LIVER, S-9, Method: STANDARD PLATE): inactive; negative | mutagenic call (Test System: MOUSE LYMPHOMA, Strain/Indicator: L5178Y (TK+/TK-), Metabolic Activation: NONE, Method: SUSPENSION/PLATE): active; positive

COC(=O)[C@@]12Oc3ccc(-c4ccc5c(c4O)C(O)=C4C(=O)C[C@H](C)[C@@H](O)[C@]4(C(=O)OC)O5)c(O)c3C(O)=C1C(=O)C[C@H](C)[C@H]2O
mutagenic call [3]: inactive; negative | mutagenic call (Test System: AMES SALMONELLA TYPHIMURIUM, Strain/Indicator: TA100, Metabolic Activation: RAT, LIVER, S-9, PHENOBARBITAL, Method: PREINCUBATION): inactive; negative

CC(=O)c1ccc(N=O)cc1
mutagenic call [1]: active; positive | mutagenic call [2]: active; positive | mutagenic call (Test System: AMES SALMONELLA TYPHIMURIUM, Strain/Indicator: TA100, Metabolic Activation: NONE, Method: STANDARD PLATE): active; positive | mutagenic call (Test System: AMES SALMONELLA TYPHIMURIUM, Strain/Indicator: TA100, Metabolic Activation: RAT, LIVER, S-9, AROCLOR 1254, Method: STANDARD PLATE): inactive; negative

Source: PubChem BioAssay AID1259407 (Chemical Carcinogenesis Research Information System (CCRIS), 2018)
